Data reported in US9981940B2, “Aryl sulfide derivatives and aryl sulfoxide derivatives as acaricides and insecticides” (BAYER CROPSCIENCE AKTIENGESELLSCHAFT, priority 2013, dated 2018).

Tests used:
Tetranychus urticae = Tetranychus urticae spray test, OP-resistant (TETRUR); format: in vivo; conditions: after 6 days; for pest or weed control at 500 g/ha: Tetranychus urticae, 144 h, read-out: efficacy
Outline: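 Mortality as % efficacy (0% = no mites killed) read 6 days after spraying. Formulation: active ingredient in acetone/dimethylformamide plus emulsifier, diluted with emulsifier-containing water, applied to Phaseolus vulgaris leaf discs carrying every life stage of OP-resistant spider mites.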

[1] = log P by HPLC (OECD Guideline 117), method [a] acidic range; format: physicochemical; conditions: for logP[a]: HPLC, method [a] acidic range; for chromatographic logP: reversed-phase C18 HPLC column, acidic range
Protocol: (§1) The log P values were determined analogously to OECD Guideline 117 (EC Directive 92/69/EEC) by HPLC (high-performance liquid chromatography) using reversed-phase columns (C 18), by the following methods:
[a] The LC-MS determination in the acidic range is effected at pH 2.7 with 0.1% aqueous formic acid and acetonitrile (contains 0.1% formic acid) as eluents; linear gradient from 10% acetonitrile to 95% acetonitrile.

[2] = log P by HPLC (OECD Guideline 117), method [b] neutral range; format: physicochemical; conditions: for logP[b]: method [b] neutral range; for chromatographic logP: reversed-phase C18 HPLC column, pH 7.8, neutral range
Protocol: as §1
[b] The LC-MS determination in the neutral range is effected at pH 7.8 with 0.001 molar aqueous ammonium hydrogencarbonate solution and acetonitrile as eluents; linear gradient from 10% acetonitrile to 95% acetonitrile.

[3] = pH 2.7, HPLC method [a], read-out: logP[a]
[4] = pH 2.7, HPLC, pH 2.7, read-out: log P[a]

logP[a] [1]	logP[b] ([2]; HPLC)	SMILES	efficacy (Tetranychus urticae; application rate of 500 g/ha)	other results
2.02	1.99	Cc1cc(F)c(-n2nc(Br)n(C)c2=O)cc1[S+]([O-])CC(F)(F)F (stereo not shown) [Example 433]	100%	–
5.22	5.17	Cc1ccc(-n2nc(OC3CCCCC3)n(C)c2=O)cc1SCC(F)(F)F [Example 155]	100%	–
2.12	2.11	CCn1c(S(C)(=O)=O)nn(-c2cc([S+]([O-])CC(F)(F)F)c(C)cc2F)c1=O (stereo not shown) [Example 422]	100%	–
–	–	Cc1cc(F)c(-n2c(C)c(C)sc2=NCC(F)(F)F)cc1[S+]([O-])CC(F)(F)F (stereo not shown) [Example 344]	–	pest or weed control at 500 g/ha (Tetranychus urticae; application rate of 500 g/ha): 100%; chromatographic logP [1, 3]: 2.17; chromatographic logP ([2]; HPLC method [b]): 3.68
3.98	3.93	Cc1cc(Cl)c(-n2nc(OCC(F)(F)F)n(C3CC3)c2=O)cc1SCC(F)(F)F [Example 187]	90%	–
–	–	CCn1ccn(-c2cc(SCC(F)(F)F)c(C)cc2F)c1=O [Example 486, 1-Ethyl-3-{2-fluoro-4-methyl-5-[(2,2,2-trifluoroethyl)sulphanyl]phenyl}-1,3-dihydro-2H-imidazol-2-one]	–	pest or weed control at 500 g/ha (Tetranychus urticae; application rate of 500 g/ha): 100%; chromatographic logP [1, 3]: 2.84; chromatographic logP [1, 4]: 2.84; chromatographic logP ([2]; HPLC): 2.79
–	–	Cc1cc(F)c(-n2ncn(C(C)C)c2=O)cc1[S+]([O-])CC(F)(F)F (stereo not shown) [Example 6, 2-{2-Fluoro-4-methyl-5-[(2,2,2-trifluoroethyl)sulphinyl]phenyl}-4-isopropyl-2,4-dihydro-3H-1,2,4-triazol-3-one]	–	pest or weed control at 500 g/ha (Tetranychus urticae; application rate of 500 g/ha): 80%; chromatographic logP [1, 3]: 1.88; chromatographic logP [1, 4]: 1.88; chromatographic logP ([2]; HPLC): 2.02
2.82	2.76	Cc1cc(F)c(-n2nc(OC(C)(C)C)n(C)c2=O)cc1[S+]([O-])CC(F)(F)F (stereo not shown) [Example 184]	100%	–
4.06	3.96	CCCOc1nn(-c2cc(SCC(F)(F)F)c(C)cc2F)c(=O)n1CC [Example 400]	100%	–
3.19	3.14	CCOc1nn(-c2cc(SCC(F)(F)F)c(C)cc2F)c(=O)n1C [Example 129]	90%	–
4.32	4.25	Cc1cc(F)c(-n2nc(OCc3ccccc3)n(C3CC3)c2=O)cc1SCC(F)(F)F [Example 410]	100%	–
2.86	2.80	Cc1cc(F)c(-n2nc(CC(C)C)n(C3CC3)c2=O)cc1[S+]([O-])CC(F)(F)F (racemic) [Example 84]	100%	–
3.71	3.75	Cc1cc(F)c(-n2nc(SCC(F)F)n(C3CC3)c2=O)cc1SCC(F)(F)F [Example 258]	90%	–
3.82	3.77	CCOCc1nn(-c2cc(SCC(F)(F)F)c(C)cc2F)c(=S)n1C1CC1 [Example 500]	100%	–
3.22	3.17	CCN(CC)c1nn(-c2cc(SCC(F)(F)F)c(C)cc2F)c(=O)n1N [Example 222]	90%	–
2.57	2.53	COc1nn(-c2cc([S+]([O-])CC(F)(F)F)c(Br)cc2F)c(=O)n1C1CC1 (stereo not shown) [Example 172]	100%	–
3.43	3.36	COc1nn(-c2cc(SCC(F)(F)F)c(Br)cc2F)c(=O)n1C1CC1 [Example 173]	100%	–
1.85	1.80	CC[S+]([O-])c1nn(-c2cc([S+]([O-])CC(F)(F)F)c(C)cc2F)c(=O)n1C1CC1 (stereo not shown) [Example 235]	100%	–
2.91	2.87	CCc1nn(-c2cc(SCC(F)(F)F)c(C)cc2F)c(=O)n1-c1cccnc1 [Example 348]	90%	–
2.63	2.61	Cc1cc(F)c(-n2nc(CCOC(C)C)n(C3CC3)c2=O)cc1[S+]([O-])CC(F)(F)F (stereo not shown) [Example 362]	90%	–
4.24	4.17	Cc1cc(F)c(-n2nc(Br)n(C(C)(C)C)c2=O)cc1SCC(F)(F)F [Example 438]	100%	–
2.85	2.83	Cc1cc(F)c(-n2ncoc2=O)cc1SCC(F)(F)F [Example 454]	90%	–

logP[a] [1]	logP[b] ([2]; HPLC)	SMILES	efficacy (Tetranychus urticae; application rate of 500 g/ha)	other results
3.53	3.46	CCCn1c(OC)nn(-c2cc(SCC(F)(F)F)c(C)cc2F)c1=O [Example 389]	90%	–
4.08	4.01	Cc1cc(F)c(-n2nc(SC(F)(F)F)n(C3CC3)c2=O)cc1SCC(F)(F)F [Example 263]	–	efficacy (Tetranychus urticae; application rate of 100 g/ha): 100%
2.55	2.51	C=CCSc1nn(-c2cc([S+]([O-])CC(F)(F)F)c(C)cc2F)c(=O)n1C (racemic) [Example 291]	100%	–
3.74	3.70	C=CCOc1nn(-c2cc(SCC(F)(F)F)c(C)cc2F)c(=O)n1C1CC1 [Example 375]	100%	–
–	–	CC1=C(C)C(=O)N(c2cc(SCC(F)(F)F)c(C)cc2F)C1=O [Example 339, 1-{2-Fluoro-4-methyl-5-[(2,2,2-trifluoroethyl)sulphanyl]phenyl}-3,4-dimethyl-1H-pyrrole-2,5-dione]	–	pest or weed control at 500 g/ha (Tetranychus urticae; application rate of 500 g/ha): 90%; chromatographic logP [1, 3]: 3.6; chromatographic logP [1, 4]: 3.6; chromatographic logP ([2]; HPLC): 3.61
3.15	3.07	CNn1c(C2CC2)nn(-c2cc(SCC(F)(F)F)c(C)cc2F)c1=O [Example 199]	100%	–
3.91	3.50	Cc1cc(F)c(N2C(=O)C=C(Br)C2=O)cc1SCC(F)(F)F [Example 337]	90%	–
3.18	3.12	CCC(C)Oc1nn(-c2cc([S+]([O-])CC(F)(F)F)c(C)cc2F)c(=O)n1C1CC1 (stereo not shown) [Example 141]	90%	–
3.84	3.79	COc1ccc(-n2nc(C(F)(F)F)n(C3CC3)c2=O)cc1SCC(F)(F)F [Example 52]	90%	–
3.49	3.43	COCc1nn(-c2cc(SCC(F)(F)F)c(C)cc2F)c(=S)n1C1CC1 [Example 492]	100%	–
1.83	1.83	COC1=CC(=O)N(c2cc([S+]([O-])CC(F)(F)F)c(C)cc2C)C1 (racemic) [Example 313]	90%	–
2.48	2.44	Cc1cc(F)c(-n2nc(OC(C)C)n(C)c2=O)cc1[S+]([O-])CC(F)(F)F (stereo not shown) [Example 166]	90%	–
3.98	3.89	Cc1cc(F)c(-n2nc(-c3cccc(F)c3)n(C3CC3)c2=O)cc1SCC(F)(F)F [Example 69]	–	efficacy (Tetranychus urticae; application rate of 100 g/ha): 100%
2.14	2.08	CCC[S+]([O-])c1nn(-c2cc([S+]([O-])CC(F)(F)F)c(C)cc2F)c(=O)n1C1CC1 (stereo not shown) [Example 237]	100%	–
–	–	Cc1cc(F)c(-n2c(C)c(C)sc2=NCC(F)(F)F)cc1SCC(F)(F)F [Example 343, 2,2,2-Trifluoro-N-[3-{2-fluoro-4-methyl-5-[(2,2,2-trifluoroethyl)sulphanyl]phenyl}-4,5-dimethyl-1,3-thiazol-2(3H)-ylidene]ethanamine]	–	pest or weed control at 500 g/ha (Tetranychus urticae; application rate of 500 g/ha): 100%; chromatographic logP [1, 3]: 3.02; chromatographic logP [1, 4]: 3.02; chromatographic logP ([2]; HPLC): 4.91
2.94	2.87	Cc1cc(F)c(-n2nc(-c3cccc(F)c3)n(C3CC3)c2=O)cc1[S+]([O-])CC(F)(F)F (racemic) [Example 70]	90%	–
2.86	2.81	CCCOc1nn(-c2cc([S+]([O-])CC(F)(F)F)c(C)cc2F)c(=O)n1CC (stereo not shown) [Example 408]	100%	–
2.34	2.29	Cc1cc(F)c(-n2nc([S+]([O-])Cc3ccccc3)n(C)c2=O)cc1[S+]([O-])CC(F)(F)F (stereo not shown) [Example 250]	100%	–
3.60	3.52	Cc1cc(F)c(-n2nc(OCC(C)(C)C)n(C3CC3)c2=O)cc1[S+]([O-])CC(F)(F)F (racemic) [Example 387]	90%	–
5.12	5.04	CC(C)(C)COc1nn(-c2cc(SCC(F)(F)F)c(Cl)cc2Cl)c(=O)n1C1CC1 [Example 397]	100%	–
1.99	1.94	COC1=CC(=O)N(c2cc([S+]([O-])CC(F)(F)F)c(C)cc2Cl)C1 (stereo not shown) [Example 318]	90%	–

SMILES	logP[a] [1]	logP[b] ([2]; HPLC)	efficacy (Tetranychus urticae; application rate of 500 g/ha)	other results
COc1nn(-c2cc([S+]([O-])CC(F)(F)F)c(C)cc2F)c(=O)n1C1CC1 (single isomer, unassigned) [Example 380]	2.14	2.09	100%	–
